Literature values as cited in patent US8884020B2, “Indole compounds” (Ironwood Pharmaceuticals, Inc., priority 2006, dated 2014).

System: prostaglandin synthesis
Settings: Shen et al. 1977

## Cc1c(CC(=O)O)c2cc(O)ccc2n1C(=O)c1ccc(Cl)cc1 [desmethyl metabolite, (1-(4-chlorobenzoyl)-5-hydroxy-2-methyl-1H-indol-3-yl]acetic acid]
  ability to inhibit prostaglandin synthesis: some ability to inhibit prostaglandin synthesis
